{
  "source": "patent US6458354B1",
  "about": "“Molecular complexes which modify immune responses” (The Johns Hopkins University, priority 1996, dated 2002)",
  "key": {"[1]": {"tested_on": "2C CTL, T2 K^bm11 target cells", "test": "2C CTL mediated lysis of peptide-loaded T2 K^bm11 targets", "assay_type": "cell-based, mice", "settings": "data not shown", "method": "(§1) CTL Assays. Splenocytes from 2C TCR transgenic mice (Sha et al. Nature 336:73-76, 1988) were resuspended at 1.25×10^6 per ml and stimulated with 1.75×10^6 BALB/c splenocytes that had been exposed to 3,000 cGy radiation. On day 7, the 2C T cell-enriched cultures were restimulated at 5×10^5 per ml with 2.5×10^6 per ml BALB/c splenocytes. Experiments were performed on this and subsequent stimulationUs on day 4. All subsequent stimulation was performed with 3.75×10^5 per ml 2C splenocytes and 2.5×10^6 per ml BALB/c cells in the presence of IL-2 (5 units/ml).\n(§2) Assays were performed in triplicate according to established CTL protocols. Briefly, target cells (2-4×10^6) were incubated with […] ^51[Cr] at 37° C. for 1 h. After three washes, cells were added to V-bottom 96 well plates (3×10^3/100 μl) and incubated (25° C. for 1.5 hour) with peptides at the indicated concentrations. 2C T cells (3×10^4/100 μl) were added to targets and plates were incubated at 37° C. for 4.5 hour. Maximum release was achieved by incubating targets with 5% Triton X 100. Percent specific lysis was calculated from raw data using [(experimental release—spontaneous release )/(maximum release—spontaneous release)]×100."}, "[2]": {"tested_on": "2C CTL, T2 K^bm3 target cells", "assay_type": "cell-based", "method": "(§3) FIGS. 12(A-C). 2C CTL mediated lysis on various peptide/MHC targets. […] Peptide-loaded target cells were then incubated at an effector to target ratio of 10:1 and specific lysis calculated as described below. Data shown are representative of three separate experiments.\nas §1, §2"}, "[3]": {"tested_on": "2C CTL, T2 K^b target cells", "assay_type": "cell-based", "method": "as §3, §1, §2"}, "[4]": {"target": "dEV-8-loaded H-2 K^bm3 (mouse)", "test": "cell-based or functional assay"}, "[5]": {"target": "SIY-loaded H-2 K^b (mouse) (UniProt P01901)", "sequence (P01901 22-369)": "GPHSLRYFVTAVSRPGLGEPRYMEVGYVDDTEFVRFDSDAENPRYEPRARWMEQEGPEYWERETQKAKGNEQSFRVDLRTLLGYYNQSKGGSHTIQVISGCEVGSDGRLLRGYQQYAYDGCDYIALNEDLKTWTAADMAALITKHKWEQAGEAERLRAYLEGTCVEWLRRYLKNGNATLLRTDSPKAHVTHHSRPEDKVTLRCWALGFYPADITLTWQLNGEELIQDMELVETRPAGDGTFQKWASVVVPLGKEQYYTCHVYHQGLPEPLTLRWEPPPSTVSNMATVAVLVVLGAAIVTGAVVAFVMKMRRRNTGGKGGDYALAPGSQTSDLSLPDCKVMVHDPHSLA", "test": "cell-based or functional assay"}, "[6]": {"target": "SIY-loaded H-2 K^bm3 (mouse)", "test": "cell-based or functional assay"}, "[7]": {"target": "p2Ca-loaded H-2 L^d (mouse) (UniProt P01897)", "sequence (P01897 25-362)": "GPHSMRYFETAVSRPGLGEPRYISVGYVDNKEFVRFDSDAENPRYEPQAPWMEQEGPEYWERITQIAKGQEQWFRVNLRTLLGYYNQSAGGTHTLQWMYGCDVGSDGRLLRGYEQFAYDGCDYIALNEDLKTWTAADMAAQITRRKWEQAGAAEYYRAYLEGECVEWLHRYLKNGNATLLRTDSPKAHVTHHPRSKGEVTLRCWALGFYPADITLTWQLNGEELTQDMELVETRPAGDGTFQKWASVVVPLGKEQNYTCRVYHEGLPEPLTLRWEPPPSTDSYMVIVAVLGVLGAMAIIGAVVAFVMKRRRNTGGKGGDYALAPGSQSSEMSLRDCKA", "test": "cell-based or functional assay"}, "[8]": {"target": "serologically reactive H-2 L^d on RENCA cells (murine) (UniProt P01897)", "sequence (P01897 25-362)": "as above", "test": "flow cytometry on RENCA cells stimulated with 5-50 units/ml γ-IFN"}, "[9]": {"target": "serologically reactive H-2 L^d on RENCA cells (murine) (UniProt P01897)", "test": "flow cytometry on unstimulated RENCA cells"}, "RENCA cells": {"tested_on": "RENCA cells", "test": "Effect of γ-IFN on endogenous peptide/H-2 L^d complexes of RENCA cells, FACS with 2C TCR/Ig or mAb 30.5.7", "assay_type": "cell-based, murine", "settings": "for effect of prior incubation of RENCA cells with peptide on 2C TCR/Ig binding: saturating peptide", "method": "FIGS. 13(A-H). Fluorescence data showing modulation of endogenous 2C specific peptide/H-2 L^d complexes on the surface of RENCA cells by γ-IFN. RENCA cells were cultured for 48 hours with 0 (FIGS. 13A and 13E), 5 (FIGS. 13B and 13F), 10 (FIGS. 13C and 13G), or 50 (FIGS. 13D and 13H) units/ml γ-IFN. […] This was accomplished by incubating RENCA cells with saturating amounts of the H-2 L^d binding peptide, MCMV, which efficiently displaced the endogenous H-2 L^d bound peptides, including any 2C-reactive peptides. […] Cells were subsequently stained with GAM-IgG-RPE and analyzed by FACS. Resultant histograms are shown. Solid lines represent histograms of cultures with no added peptide while dotted lines represent histograms from cultures incubated with pMCMV. All experiments were done in duplicate and repeated at least three times. Note the differences in the extent of fluorescence (see the scales on the histograms) upon staining with 2C-TCR/Ig vs. staining with 30.5.7.\nPeptide Loading of Cells. RMA-S and T2 cell lines are defective in antigen processing and express functionally “empty” class I MHC on their cell surface. These “empty” MHC molecules can be loaded with peptides using the following protocol (25). Cells (RMA-S, RMA-S L^d, T2, T2 L^d, T2 Kb, T2 Kbm3 or T2 K^bm11) are cultured at 27° C. overnight. The following morning, cells are cultured in the presence of various antigenic peptides (100 μM final concentration) or in the absence of peptides for an additional 1.5 hours at 27° C. and then incubated for one hour at 37° C. RENCA cells were loaded with peptides by incubation with peptides (100 μM final concentration) for >2 hour at 37° C. Cells were then harvested and processed for FACS analysis as described.\nTo analyze this possibility and to follow the expression of endogenous 2C-reactive peptide/H-2 L^d complexes within a heterogeneous peptide/MHC environment, the influence of γ-IFN on the H-2 L^d -expressing murine cell line RENCA was studied.\nRENCA cells were cultured in the presence of variable amounts of γ-IFN to induce up-regulation of naturally loaded peptide/MHC complexes. […] The effect of γ-IFN was dose dependent with a maximal 2-3 fold increase seen on cells treated with 10 units/ml of γ-IFN."}, "2C TCR": {"target": "2C TCR", "settings": "read-out: Kd (μM) of 2C TCR for peptide/MHC complex; MHC restriction H-2 Ld; monovalent 2C TCR; cited from earlier work"}, "[10]": {"target": "SIY-loaded H-2 K^b (mouse) (UniProt P01901)", "test": "flow cytometry on peptide-loaded T2 K^b cells"}, "[11]": {"target": "pVSV-loaded H-2 K^b (mouse) (UniProt P01901)", "sequence (P01901 22-369)": "as the sequence (P01901 22-369) above", "test": "flow cytometry on peptide-loaded T2 K^b cells"}, "[12]": {"target": "QL9-loaded H-2 L^d (mouse) (UniProt P01897)", "sequence (P01897 25-362)": "as the sequence (P01897 25-362) above", "test": "direct flow cytometry on peptide-loaded L^d cells"}, "[13]": {"target": "p2Ca-loaded H-2 L^d (mouse) (UniProt P01897)", "test": "flow cytometry, serial dilutions on peptide-loaded RMA-S L^d cells, H57-FITC detection"}, "[14]": {"target": "QL9-loaded H-2 L^d (mouse) (UniProt P01897)", "test": "flow cytometry, serial dilutions on peptide-loaded RMA-S L^d cells, H57-FITC detection"}, "[15]": {"target": "pVSV-loaded H-2 K^bm3 (mouse)", "test": "flow cytometry on peptide-loaded T2 K^bm3 cells"}, "[16]": {"target": "SIY-loaded H-2 K^bm3 (mouse)", "test": "flow cytometry on peptide-loaded T2 K^bm3 cells"}, "[17]": {"target": "SL9-loaded H-2 L^d (mouse) (UniProt P01897)", "sequence (P01897 25-309)": "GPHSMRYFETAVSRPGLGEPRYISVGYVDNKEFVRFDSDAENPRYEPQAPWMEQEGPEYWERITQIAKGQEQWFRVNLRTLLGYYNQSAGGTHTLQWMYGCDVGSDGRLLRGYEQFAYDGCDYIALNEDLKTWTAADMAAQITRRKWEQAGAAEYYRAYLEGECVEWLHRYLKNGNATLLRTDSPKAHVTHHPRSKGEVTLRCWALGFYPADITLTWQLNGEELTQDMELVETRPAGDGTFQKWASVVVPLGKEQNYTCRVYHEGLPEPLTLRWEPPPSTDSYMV", "test": "direct flow cytometry on peptide-loaded RMA-S L^d cells"}},
  "note": "Values joined by “and” are separate entries in the source; they are usually repeats but may differ in a detail not shown here. Equal entries are not always repeated. Where no end group is shown, it is not given here.",
  "data": [
    {"substance": "SIYRYYGL [SIY]", "values": [
      {"measurement": "2C CTL mediated lysis of peptide loaded targets", "setting": "[1]", "value": "efficient lysis"},
      {"measurement": "2C CTL mediated lysis of peptide loaded targets", "setting": "[2]", "value": "significantly less efficient"},
      {"measurement": "LD50 of peptide for 2C CTL mediated lysis", "setting": "[2]; T2 K^bm3 targets, effector to target ratio 10:1", "value": "~100", "unit": "ng/mL"},
      {"measurement": "2C CTL mediated lysis of peptide loaded targets", "setting": "[3]", "value": "efficient lysis"}
    ]},
    {"substance": "EQYKFYSV [dEV-8]", "values": [
      {"measurement": "2C CTL mediated lysis of peptide loaded targets", "setting": "[1]", "value": "relatively poor targets"},
      {"measurement": "2C CTL mediated lysis of peptide loaded targets", "setting": "[2]", "value": "efficiently lysed"},
      {"measurement": "2C CTL mediated lysis of peptide loaded targets", "setting": "[3]", "value": "neither lysed"}
    ]},
    {"substance": "2C TCR on 2C CTL (from UniProt A2KF29)", "values": [
      {"measurement": "LD50 of peptide for 2C CTL mediated lysis", "setting": "[4]", "value": "0.5 ng/mL and 1 ng/mL"},
      {"measurement": "LD50 of peptide for 2C CTL mediated lysis", "setting": "[5]", "value": 10, "unit": "ng/mL"},
      {"measurement": "LD50 of peptide for 2C CTL mediated lysis", "setting": "[6]", "value": 100, "unit": "ng/mL"},
      {"measurement": "LD50 of peptide for 2C CTL mediated lysis of p2Ca-loaded T2 L^d cells", "setting": "[7]", "value": 0.5, "unit": "ng/mL"}
    ]},
    {"substance": "mAb 30.5.7 (antibody)", "values": [
      {"measurement": "mean channel fluorescence (MCF)", "setting": "[8]", "value": "2670 to 3040"},
      {"measurement": "mean channel fluorescence (MCF)", "setting": "[9]", "value": 500}
    ]},
    {"substance": "γ-IFN: lymphokine used to up-regulate naturally loaded peptide/MHC complexes on RENCA cells", "values": [
      {"measurement": "increase in serologically reactive H-2 L^d recognized by mAb 30.5.7", "setting": "RENCA cells; 5-50 units/ml γ-IFN, 48 hours", "value": "5-6 fold"},
      {"measurement": "maximal increase of 2C TCR/Ig binding to RENCA cells", "setting": "RENCA cells; 10 units/ml γ-IFN, 48 hours", "value": "2-3 fold"}
    ]},
    {"substance": "QLSPFPFDL [QL9]", "values": [
      {"measurement": "Kd", "setting": "2C TCR", "value": 0.066, "unit": "µM"},
      {"measurement": "effect of prior incubation of RENCA cells with peptide on 2C TCR/Ig binding", "setting": "RENCA cells", "value": "dramatic increase"}
    ]},
    {"substance": "LSPFPFDL [p2Ca]", "values": [
      {"measurement": "Kd", "setting": "2C TCR", "value": "0.1 to 0.5", "unit": "µM"}
    ]},
    {"substance": "LSPFPFDLL [SL9]", "values": [
      {"measurement": "Kd", "setting": "2C TCR", "value": 71, "unit": "µM"}
    ]},
    {"substance": "YPHFMPTNL [pMCMV]", "values": [
      {"measurement": "effect of prior incubation of RENCA cells with peptide on 2C TCR/Ig binding", "setting": "RENCA cells", "value": "blocked"}
    ]},
    {"substance": "soluble divalent 2C TCR/Ig (from UniProt A2KF29)", "values": [
      {"measurement": "mean channel fluorescence (MCF)", "setting": "[10]", "value": 276},
      {"measurement": "mean channel fluorescence (MCF)", "setting": "[11]", "value": 14},
      {"measurement": "mean channel fluorescence (MCF)", "setting": "[12]", "value": 3000},
      {"measurement": "concentration required to detect binding", "setting": "[13]", "value": 3, "unit": "nM"},
      {"measurement": "lowest concentration tested, at which binding was detected", "setting": "[14]", "value": 1, "unit": "nM"},
      {"measurement": "mean channel fluorescence (MCF)", "setting": "[15]", "value": 12},
      {"measurement": "mean channel fluorescence (MCF)", "setting": "[16]", "value": 36},
      {"measurement": "mean channel fluorescence (MCF)", "setting": "[17]", "value": 100}
    ]}
  ]
}
